Measurements published in article PMC7717691, “Design, synthesis, and anticonvulsant effects evaluation of nonimidazole histamine H3 receptor antagonists/inverse agonists containing triazole moiety” (Journal of Enzyme Inhibition and Medicinal Chemistry, 2020).
“Also recorded” adds a separate entry of the source. Read-outs that look alike come from different tables or passages of the source. Values belong to the compound of their own block, whether it stands above or below them.

How the values were obtained:
[1] = target: T1, H3R (Homo sapiens, UniProt Q9Y5N1); experiment: CRE-luciferase assay, H3R inverse agonist activity (forskolin-stimulated transfected HEK-293 cells); assay type: cell-based; conditions: 10 µM forskolin plus compound; seven concentrations; read-out: H3R inverse agonistic activity EC50
T1 construct: expressed in transfected cells
Description: The raise of luciferase activity after adding compound represented the inverse agonistic activity. The EC50 was calculated by seven concentrations.

[2] = Rotarod test (neurotoxicity); assay type: in vivo; conditions: 10 and 20 mg/kg
Excerpt: To exclude the possibility that the anticonvulsant activity of 3m was connected with sedative effect, we carried out a rotarod test for 3m.

[3] = system: intracellular cAMP; experiment: Effect of compounds administrated alone on the level of intracellular cAMP; assay type: cell-based; conditions: compound alone; ANOVA followed by Dunnett's test; Figure 2
Excerpt: It is well known that H3R is a GPCR coupled with Gαi. When the ligand (histamine) binds to H3R, the dissociated Gαi inhibits the activity of adenylate cyclase (AC) and down-regulates the level of intracellular cAMP. In this CREs driven luciferase assay, when cells were pre-treated by H3R antagonists, the downregulation of cAMP would be inhibited, and the level of intracellular cAMP would regain to the initial level.

[4] = target: T1, H3R; experiment: CRE-driven luciferase reporter gene assay, H3R antagonistic activity; assay type: cell-based; conditions: for % Antagonism 100 nM: 100 nM compound; for % Antagonism 100 nM / % Antagonism 1 μM: HEK-293 cells expressing human H3R, mean ± SD of three experiments; for % Antagonism 1 μM: 1 μM compound
Description: cAMP-response element (CRE) reporter gene assay has been extensively used to evaluate the efficacy of GPCR antagonists or agonists. […] Initially, compounds and positive controls were tested at two concentrations (100 nM and 1 µM) to obtain the preliminary investigation of their H3R antagonistic activities. In the assays, the antagonistic activities was positively correlated with the rise of the fluorescence value and indicated by the % antagonism. For the prominent compounds IC50 values were determined at additional assays.
Human thalamus poly-A RNA (Clontech, Palo Alto, CA, USA) was used to clone the hH3R gene by RT-PCR. DNA PCR primers were designed in the light of the reported human histamine receptor gene sequences (GenBank accession no.AF140538). HEK-293 cells were cultured and transfected for the luciferase assay. The detailed procedures were described in the previous publication.
Stable HEK-293 cells, which had been co-transfected with H3R and pCRE-Luc, were seeded in a 96-well plate overnight, and were grown to 90–95% confluence[43]^,[44]. Then the cells were treated with various concentrations of tested compounds in serum-free DMEM and incubated for 20 min. Cells were then stimulated with 100 nM Histamine in serum-free DMEM containing 2 µM Forskolin and incubated for 4 h at 37 °C. Firefly luciferase assay kits (Ken-real, Shanghai, China) were used to determine the luciferase activity.

[5] = system: MES-induced convulsions; experiment: MES-induced convulsions model; assay type: in vivo; conditions: mice; for protection against MES-induced convulsions (reduction or abolition of THLE): i.p.; for protection against MES-induced convulsions in different doses: Figure 7
Excerpt: Protection for the mice was defined as the reduction or abolition of the tonic hind limb extension (THLE) in the MES model in mice.
Ear stimulation with alternating current (0.2 s, 60 Hz, 50 mA) was used to induce the seizures in mice. The reduction or abolition of the hind limb tonic extension (THLE) of mice was considered protective against the MES-induced seizures[29]^,[48]. […]

[6] = system: MES; conditions: cited from earlier work
[7] = system: PTZ; conditions: cited from earlier work
[8] = system: human photosensitivity model; conditions: dose ranges of 30–60 mg, alone or in combination with other AEDs; cited from earlier work
[9] = system: PTZ; conditions: 10 mg/kg i.p.; ref not printed (Figure 1); cited from earlier work
[10] = system: PTZ-induced convulsions; experiment: PTZ-induced convulsions model; assay type: in vivo; conditions: mice, PTZ 85 mg/kg s.c.
Description: To investigate the anticonvulsive effects, all the target compounds (3a-3q) were screened in the MES-induced and PTZ-induced convulsion models in mice. Compounds were administered intraperitoneally (i.p.) to mice at dosage of 10 mg/kg in the both models. PIT and valproic sodium (VPA) were used as positive controls in the tests.
PTZ (85 mg/kg) was injected subcutaneously to induce seizures. […] The following are the specific meaning of graded scores: score 0 = normal, score 1 = eyelids or facial twitches, score 2 = agitation with body twisting, score 3 = myo-clonic jerks or rearing, score 4 = turn over into one side position or running violently, and score 5 = turn over into back position, limbs tonic extension, or die during the experiment period.

[11] = system: MES; conditions: 10 mg/kg i.p.; ref not printed (Figure 1); cited from earlier work
[12] = 10 mg/kg, 30 min before stimulation, vs saline group

T1 sequence (Q9Y5N1 whole entry): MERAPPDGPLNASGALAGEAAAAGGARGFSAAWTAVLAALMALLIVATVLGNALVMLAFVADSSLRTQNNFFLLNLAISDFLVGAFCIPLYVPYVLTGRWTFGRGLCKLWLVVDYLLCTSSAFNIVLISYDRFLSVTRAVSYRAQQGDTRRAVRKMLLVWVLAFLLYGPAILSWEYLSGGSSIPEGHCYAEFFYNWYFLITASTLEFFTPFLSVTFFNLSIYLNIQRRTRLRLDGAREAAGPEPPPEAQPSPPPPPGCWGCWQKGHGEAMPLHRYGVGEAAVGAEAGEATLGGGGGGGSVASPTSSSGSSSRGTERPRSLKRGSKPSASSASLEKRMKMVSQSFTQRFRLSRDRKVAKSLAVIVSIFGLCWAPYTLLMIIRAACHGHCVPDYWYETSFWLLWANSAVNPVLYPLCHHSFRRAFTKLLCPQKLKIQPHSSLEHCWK

EC50 [1]: 129 nM | melting point: 165 to 167 °C | % Antagonism 100 nM [4]: 201.12 ± 12.63% | % Antagonism 1 μM [4]: 203.92 ± 8.44% | IC50 ([4]; CRE luciferase assay, HEK-293 cells, Table 1): 5.92 nM
Structure (SMILES): Clc1ccc(-c2nncn2-c2ccc(OCCCN3CCCCC3)cc2)cc1 [Compound 3m, 1-(3-(4-(3-(4-chlorophenyl)-4H-1,2,4-triazol-4-yl)phenoxy)propyl)piperidine]
neurotoxicity in rotarod test [2]: no neurotoxicity | effect on the level of cAMP when treated alone [3]: no significant effects | protection against MES-induced seizures when co-treated with RAMH ([5]; 10 mg/kg i.p. plus RAMH 10 mg/kg i.p.): fully abrogated; also recorded: lost its original protective effect | protection against MES-induced convulsions (reduction or abolition of THLE) [5, 12]: moderate protection | protection against MES-induced convulsions in different doses [5]: dose dependent

Structure (SMILES): CCCCCCCOc1ccc2c(c1)-c1nncn1CCO2 [II]
MES (mice) ([6]; 10 mg/kg i.p.): protection | PTZ (mice) ([7]; 30 mg/kg i.p.): protection

% Antagonism 100 nM [4]: 54.16 ± 7.33% | % Antagonism 1 μM [4]: 246.29 ± 21.48%
Structure (SMILES): Clc1ccc(CCCOCCCN2CCCCC2)cc1 [PIT, Pitolisant, reference compound]
EEG profile in the human photosensitivity model [8]: favourable EEG profile in a dose-dependent manner | PTZ (rats) [9]: no protection | protection against PTZ-induced convulsions ([10]; 10 mg/kg i.p.): failed to protect | protection against MES-induced convulsions (reduction or abolition of THLE) [5, 12]: moderately | protection against MES-induced convulsions (THLE) ([5]; 20 mg/kg): fully abrogate the tonic hind limb extension; also recorded: fully abrogate the THLE | protection against MES-induced convulsions in different doses [5]: dose-dependently | MES (rats) [11]: protection

Structure (SMILES): S=C(NC1CCCCC1)N1CCC(c2cnc[nH]2)CC1 [Thioperamide]
MES (mice) ([6]; 10 & 15 mg/kg i.p.): protection | PTZ (mice) ([7]; 7.5 & 15 mg/kg i.p.): protection

Structure (SMILES): CCCC(CCC)C(=O)O [VPA, Valproic acid, reference compound]
protection against PTZ-induced convulsions ([10]; 300 mg/kg i.p.): full protection | protection against MES-induced convulsions (reduction or abolition of THLE) ([5]; 300 mg/kg): potently
